From publication PMC12176620, “Structure of the ATP-driven methyl-coenzyme M reductase activation complex” (Nature, 2025) come the findings set out here.

Test [1] deals with T1, A2 component (Methanococcus maripaludis, UniProt A0A2L1C9A1).
T1 construct: gene opuCA; with Methyl-coenzyme M reductase subunit alpha; Methyl-coenzyme M reductase subunit beta; Methyl-coenzyme M reductase subunit gamma; Methyl-coenzyme M reductase operon protein C; Methanogenesis marker protein 7; Methanogenesis marker protein 17; Methanogenesis marker protein 3; DUF2098 domain-containing protein
Briefly: cryo-EM structure. In kind it is binding. The settings on record: two ATP with Mg ions, pre-hydrolytic state; sample incubated with 5 mM ATP.

The target of test [2] is T2, MCR (McrABG core) in the MCR activation complex (Methanococcus maripaludis, UniProt A0A2L1CBB0+A0A2L1CBB3+A0A2L1CBG2).
T2 construct: gene mcrA; native complex pulled down from M. maripaludis by genomic N-terminal Twin-Strep-tag on McrC; McrA with native post-translational modifications; with Methyl-coenzyme M reductase operon protein C; Methanogenesis marker protein 7; Methanogenesis marker protein 17; Methanogenesis marker protein 3; Methyl-coenzyme M reductase system component A2; DUF2098 domain-containing protein
The experiment in a line: cryo-EM structure. It is filed as binding.

The target in test [3] is T1, A2 component. The experiment in a line: mass photometry (stabilisation of the complex). It is filed as binding. As to conditions: 5 mM AMP-PNP, 20 mM Ti(III) citrate; indirect, through assembly of A2 with MCR.
Test [4] addresses methyl-coenzyme M reductase (MCR) core (Methanococcus maripaludis (endogenous in M. maripaludis JJ Δupt)) (UniProt Q6LWZ9). The experiment in a line: cryo-EM structure; single-particle analysis of the Strep-Tactin-purified MCR activation complex (1.2 mg/ml), vitrified anaerobically 'as isolated' (maps with A2 at 2.5 Å and without A2 at 2.7 Å) and after 30 min with 5 mM ATP and the CH4 reaction components except Ti(III) citrate (2.1 Å, locally 1.8 Å).

T2 sequence (A0A2L1CBB3 entry or part of it): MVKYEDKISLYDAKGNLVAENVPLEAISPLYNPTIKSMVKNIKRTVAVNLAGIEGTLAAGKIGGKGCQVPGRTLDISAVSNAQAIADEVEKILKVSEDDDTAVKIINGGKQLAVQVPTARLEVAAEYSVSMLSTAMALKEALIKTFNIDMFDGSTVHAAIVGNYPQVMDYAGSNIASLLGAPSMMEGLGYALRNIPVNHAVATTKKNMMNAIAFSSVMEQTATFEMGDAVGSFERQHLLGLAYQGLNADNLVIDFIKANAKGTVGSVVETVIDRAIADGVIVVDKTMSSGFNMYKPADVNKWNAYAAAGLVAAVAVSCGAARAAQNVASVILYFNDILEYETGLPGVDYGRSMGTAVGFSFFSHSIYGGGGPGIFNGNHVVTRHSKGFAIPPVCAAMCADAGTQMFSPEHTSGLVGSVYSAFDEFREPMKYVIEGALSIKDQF
T2 sequence (A0A2L1CBB0 entry or part of it): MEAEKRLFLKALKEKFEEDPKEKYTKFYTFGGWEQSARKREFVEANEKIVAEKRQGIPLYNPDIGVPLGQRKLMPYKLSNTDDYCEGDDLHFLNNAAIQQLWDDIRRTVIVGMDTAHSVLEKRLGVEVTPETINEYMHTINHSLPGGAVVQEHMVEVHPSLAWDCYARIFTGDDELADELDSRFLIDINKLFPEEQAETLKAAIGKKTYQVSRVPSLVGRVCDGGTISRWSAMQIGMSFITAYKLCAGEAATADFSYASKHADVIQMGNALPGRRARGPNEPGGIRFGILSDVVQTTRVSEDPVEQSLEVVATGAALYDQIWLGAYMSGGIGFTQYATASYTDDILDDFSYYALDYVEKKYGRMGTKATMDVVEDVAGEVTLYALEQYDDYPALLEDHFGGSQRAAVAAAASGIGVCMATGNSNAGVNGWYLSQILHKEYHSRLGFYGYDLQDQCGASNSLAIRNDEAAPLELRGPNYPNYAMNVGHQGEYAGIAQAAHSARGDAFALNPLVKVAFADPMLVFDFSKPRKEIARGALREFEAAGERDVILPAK
T2 sequence (A0A2L1CBG2 entry or part of it): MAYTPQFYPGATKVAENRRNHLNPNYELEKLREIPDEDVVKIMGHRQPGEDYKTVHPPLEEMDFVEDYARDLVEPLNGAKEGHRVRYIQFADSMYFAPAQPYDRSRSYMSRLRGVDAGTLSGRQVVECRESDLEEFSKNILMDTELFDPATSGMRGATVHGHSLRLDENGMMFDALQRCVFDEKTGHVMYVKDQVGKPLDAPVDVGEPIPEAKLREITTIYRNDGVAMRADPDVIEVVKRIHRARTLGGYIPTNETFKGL
T2 sequence (G0H3B1 entry or part of it, further chain): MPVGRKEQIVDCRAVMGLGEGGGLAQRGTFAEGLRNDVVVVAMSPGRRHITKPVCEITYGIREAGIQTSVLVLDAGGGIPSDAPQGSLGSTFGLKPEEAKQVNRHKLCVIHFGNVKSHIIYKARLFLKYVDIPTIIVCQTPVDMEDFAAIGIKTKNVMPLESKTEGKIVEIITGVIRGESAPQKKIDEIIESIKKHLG

In the case of `Nc1ncnc2c1ncn2[C@@H]1O[C@H](COP(=O)(O)OP(=O)(O)OP(=O)(O)O)[C@@H](O)[C@H]1O` [ATP], the cryo-EM structure entry on A2 component [1] was “Our structure revealed two ATP molecules and their coordinating Mg ions”. Regarding `C[C@@H](OP(=O)(O)O)[C@H](NC(=O)CCCCCCSSCCS(=O)(=O)O)C(=O)O` [CoMS–SCoB], in test [2] (proximal active site, next to F430, sample incubated with ATP), the cryo-EM structure result is reported as “In the proximal active site, we found the CoMS–SCoB heterodisulfide next to F430”.

As for `C[C@@H](OP(=O)(O)O)[C@H](NC(=O)CCCCCCS)C(=O)O` [CoB–SH], the cryo-EM structure entry in test [2] (distal active site) is given as “the phosphate moiety of CoB–SH was kept in place by the positively charged McrA residues”. Take `Nc1ncnc2c1ncn2[C@@H]1O[C@H](COP(=O)(O)OP(=O)(O)NP(=O)(O)O)[C@@H](O)[C@H]1O` [AMP-PNP]: at A2 component [3], the “mass photometry (stabilisation of the complex)” value was “A similar effect was observed when AMP-PNP, a non-hydrolysable ATP analogue, was used”.

B1: A2 component (natural protein)
chain: MLLLEVKNVSKSYGDTEVLKNVSFELNEGDVMGVLGRSGAGKSVLLHMLRGMEGYEPTSGQIIYHVAYCPHCENVEAPSQVGKKCECETEYVAKSVDFWNNNEITYALKKKIAIMLQRTFALYGEKTVAENIMEALTAAGYEGKDATEWALNLIKMVKLEHRVAHISRDLSGGEKQRVVLARQIAKNPVIFLADEPTGTLDPKTAKFVHNALTEAVIKHNIAMVITSHWPEVIEELCQKAIWLDKGEMRLVGESKHVVEEFMKTVTSMKEFEKVEVKDELLKLENVEKRYVSVDRGIVKAVDGIDVSINEKEIFGLVGVSGAGKTTLSKIIAAVIPPSKGNYEFRLADEWVDMTKVGPLYRGRAKRYIGMLFQEYSLYPHRTILYNLTESIGLEMPGEFAKMKAEHTLVSVGFTEEEAENMLEKHPSELSVGEKHRVALAQVLIREPHLILLDEPTGTMDPITRNQVAESIQKSRSELDQTYVIVSHDMDFVLNVCDRAALVRGGKIIKTGKPDEIVKILSEEEKDEMIGH
In test [4], B1 came in with an occupancy of the A2 component, sample preincubated with 5 mM ATP (% of the particles) of 92 and a percent of particles with the A2 component, sample 'as isolated' (% of particles) of 58.
